Each block holds one molecule with its values, some of them ahead of it. Where a SMILES comes first, the peptide text is derived from it. Bridges are numbered along the chain shown (N, C = ends). Where no end group is shown, it is not given here.
Legend:
[1] = biological target: T1, recombinant human CD13 (rCD13) (Homo sapiens, UniProt P15144); assay: rCD13 enzyme inhibition assay, L-alanine-p-nitroanilide substrate; type: biochemical; conditions: for IC50: rCD13 0.2 μg/mL, L-alanine-p-nitroanilide 0.5 mM, 60 mM potassium phosphate buffer pH 7.4, 30 min, 37 °C, absorbance, mean ± SEM of n independent experiments, read-out: IC50: peptide concentration that inhibits 50% of rCD13 enzymatic activity
T1 construct: consisting of the CD13 extracellular domain expressed in HEK-293 cells; His-tag; purchased Sino Biological 10051-H08H; host or cells: HEK-293 cells
Procedure: (§1) Recombinant CD13 (rCD13) enzyme activity and inhibition assays were performed as described previously using L-alanine-p-nitroanilide or L-alanine 7-amido-4-methylcoumarin as substrates in 60 mM Tris–HCl, pH 7.4, or 60 mM potassium phosphate buffer, pH 7.4. Mixtures containing peptides at various concentrations, rCD13 (0.2 µg/mL), and L-alanine-p-nitroanilide substrate (0.5 mM) in 60 mM potassium phosphate buffer, pH 7.4 (total volume, 0.1 ml) were prepared and left to react for 30 min at 37 °C. The products were then analyzed using a plate reader (iMark Microplate Absorbance Reader; Bio-Rad). Alternatively, the assay was performed using 0.1 mM L-alanine 7-amido-4-methylcoumarin in 60 mM Tris–HCl, pH 7.4, as a substrate. Fluorescence intensity of methylcoumarin was measured on an Infinite 200 PRO plate reader (Tecan) using the following settings: excitation wavelength: 341 nm; emission wavelength: 441 nm; excitation bandwidth: 9; emission bandwidth: 20 nm; gain: 109 manual; number of flashes: 25; integration time: 20 µs; lag time: 0 µs; settle time: 0 ms.
(§2) The IC50 of each inhibitor was calculated by non-linear regression analysis of inhibition data using GraphPad Prism Software (GraphPad Software, Version 9.00, San Diego, CA). Steady-state enzyme kinetic analyses were performed using various concentrations of L-alanine-p-nitroanilide (0–1.5 mM) and VGCARRYCS peptide (0–900 nM). The initial velocities (Vo) were calculated from the slopes of the first 5 min of reaction. The enzyme inhibitory constant (Ki) was calculated using the competitive enzyme inhibition model in GraphPad Prism Software.
A) VGCGRRYCSN and CSGIGSSGGC (control) peptides, at various concentrations, were mixed with rCD13 (0.2 µg/mL), L-alanine-p-nitroanilide substrate (0.5 mM), in 60 mM potassium phosphate buffer, pH 7.4. The mixtures were left to react for 30 min at 37° C; then the absorbance at 405 nm of each mixture was measured using an ELISA plate reader (Bio-Rad). The IC50 of each inhibitor was calculated by non-linear regression analysis of inhibition data using the GraphPad Prism Software (GraphPad Software, Version 9.00, San Diego, CA). The result of one experiment performed in duplicate is shown (mean ± SEM).

[2] = biological target: T1, recombinant human CD13 (rCD13); assay: rCD13 enzyme inhibition assay, L-alanine 7-amido-4-methylcoumarin substrate; type: biochemical; conditions: 0.1 mM L-alanine 7-amido-4-methylcoumarin, 60 mM Tris-HCl pH 7.4, fluorescence; mean ± SEM of n independent experiments; read-out: IC50: peptide concentration that inhibits 50% of rCD13 enzymatic activity
Procedure: as §1, §2
Fig. 2 G4 recognizes soluble forms of CD13, with higher affinity and selectivity than bestatin, and the membrane forms expressed on the surface of HUVEC cells. A Inhibitory effects of G4 and bestatin on the enzymatic activities of different aminopeptidases (rCD13, APA, and APB). Various amounts of G4 or bestatin were incubated with rCD13 (0.2 µg/mL in 60 mM Tris–HCl pH 7.4), APA (0.2 µg/mL in 60 mM Tris–HCl pH 7.4, 50 mM calcium chloride, 200 mM sodium chloride) or APB (0.2 µg/mL in 60 mM Tris–HCl pH 7.4, 100 mM potassium chloride) and the corresponding substrates at 0.1 mM (L-alanine-7-amido-4-methylcoumarin for rCD13, L-glutamic acid γ-(7-amido-4-methylcoumarin) for APA, and L-arginine-7-amido-4-methylcoumarin for APB). The mixtures were incubated for 30 min at 37 °C, and the cleavage of each substrate was monitored by measuring the fluorescence of methylcoumarin (λex 341 nm; λem 441 nm) using an Infinite 200 PRO plate reader (Tecan). Three independent experiments were performed for each enzyme. The results of one representative experiment for each enzyme are shown (mean ± SEM, duplicates). B Inhibitory effects of G4 and bestatin on soluble CD13 immunocaptured from human serum (sCD13) using microtiter plates coated with anti-CD13 mAb WM15. The microtiter plate was filled with a solution of mAb WM15 (5 μg/ml in DPBS) and incubated overnight at 4 °C. The plate was then washed with DPBS, blocked with 3% bovine serum albumin (BSA) in DPBS, and filled with human serum containing soluble CD13 (diluted 1:2 with DPBS containing 2% BSA). After washing with DPBS, mixtures of G4 or bestatin (0–100 µM in 60 mM Tris–HCl, pH 7.4) and L-alanine p-nitroanilide hydrochloride substrate (4.5 mM in 60 mM Tris–HCl, pH 7.4) were added and left to incubate at 37 °C for 2 h. Substrate cleavage by sCD13 dissociated from mAb WM15 was then monitored by measuring the absorbance at 405 nm in each well using a plate reader (Bio-Rad). The results of one experiment performed in triplicate are shown (mean ± SEM). C Effect of G4 on the binding of the anti-CD13 mAb WM15 to HUVEC. HUVEC were seeded at a density of 2 × 10^5 cells in 100 µL DPBS supplemented with 5% normal human serum (NHS) and incubated with a mixture of G4 peptide (0, 0.1, 1, and 10 µM) and mAb WM15 (0 or 0.13 nM) as indicated. […]

[3] = biological target: His-tagged recombinant human CD13 (rCD13) (human) (UniProt P15144)
Sequence of His-tagged recombinant human CD13 (rCD13) (human) (P15144 33-967): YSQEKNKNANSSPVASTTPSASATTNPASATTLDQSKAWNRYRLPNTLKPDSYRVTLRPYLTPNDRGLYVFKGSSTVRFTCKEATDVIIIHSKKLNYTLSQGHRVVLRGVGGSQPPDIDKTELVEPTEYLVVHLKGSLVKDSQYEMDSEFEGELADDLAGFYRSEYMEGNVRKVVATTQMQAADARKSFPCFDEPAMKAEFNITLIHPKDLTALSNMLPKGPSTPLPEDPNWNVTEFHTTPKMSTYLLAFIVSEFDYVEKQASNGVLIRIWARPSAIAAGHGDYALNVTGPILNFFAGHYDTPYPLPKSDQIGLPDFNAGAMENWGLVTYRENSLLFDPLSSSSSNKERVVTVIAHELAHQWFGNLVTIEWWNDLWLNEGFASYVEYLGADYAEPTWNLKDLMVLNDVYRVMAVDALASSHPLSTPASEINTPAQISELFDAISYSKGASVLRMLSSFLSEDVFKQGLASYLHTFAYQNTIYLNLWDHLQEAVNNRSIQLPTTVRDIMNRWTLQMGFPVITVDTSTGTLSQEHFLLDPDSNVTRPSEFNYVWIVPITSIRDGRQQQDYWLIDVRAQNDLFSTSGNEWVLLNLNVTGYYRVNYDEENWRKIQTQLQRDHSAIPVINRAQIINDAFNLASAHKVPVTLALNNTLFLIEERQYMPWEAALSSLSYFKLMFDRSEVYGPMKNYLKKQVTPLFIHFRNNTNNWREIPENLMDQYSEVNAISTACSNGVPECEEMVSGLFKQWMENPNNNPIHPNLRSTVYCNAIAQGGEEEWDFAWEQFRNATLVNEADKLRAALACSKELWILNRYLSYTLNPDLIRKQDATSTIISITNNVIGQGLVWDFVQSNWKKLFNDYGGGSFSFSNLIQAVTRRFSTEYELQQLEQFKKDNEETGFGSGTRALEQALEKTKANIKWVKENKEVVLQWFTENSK

T1 sequence (P15144 33-967 limits assumed): as the sequence (P15144 33-967) above

Molecule: C[C@H](N)C(=O)NCC(=O)N[C@H]1CSSC[C@@H](C(=O)N[C@@H](CO)C(=O)N[C@@H](CC(N)=O)C(=O)O)NC(=O)[C@H](Cc2ccc(O)cc2)NC(=O)[C@H](CCCNC(=N)N)NC(=O)[C@H](CCCNC(=N)N)NC(=O)CNC1=O [AGCGRRYCSN] (H-AGCGRRYCSN-OH; disulfide 3-8)
IC50 [1]: 11.4 ± 4.5 µM

Molecule: C[C@@H]1NC(=O)[C@@H](NC(=O)CN)CSSC[C@@H](C(=O)N[C@@H](CO)C(=O)O)NC(=O)[C@H](Cc2ccc(O)cc2)NC(=O)[C@H](CCCNC(=N)N)NC(=O)[C@H](CCCNC(=N)N)NC1=O [GCARRYCS] (H-GCARRYCS-OH; disulfide 2-7)
IC50 [2]: 69.5 ± 0.1 µM

Molecule: CC(C)[C@H](N)C(=O)N[C@@H](C)C(=O)N[C@H]1CSSC[C@@H](C(=O)N[C@@H](CO)C(=O)N[C@@H](CC(N)=O)C(=O)O)NC(=O)[C@H](Cc2ccc(O)cc2)NC(=O)[C@H](CCCNC(=N)N)NC(=O)[C@H](CCCNC(=N)N)NC(=O)CNC1=O [VACGRRYCSN] (H-VACGRRYCSN-OH; disulfide 3-8)
IC50 [1]: 4.5 ± 5.1 µM

Molecule: CC(C)[C@H](N)C(=O)NCC(=O)N[C@H]1CSSC[C@@H](C(=O)N[C@@H](CO)C(=O)N[C@@H](CC(N)=O)C(=O)O)NC(=O)[C@H](Cc2ccc(O)cc2)NC(=O)[C@H](CCCNC(=N)N)NC(=O)[C@H](CCCNC(=N)N)NC(=O)[C@H](C)NC1=O [VGCARRYCSN] (H-VGCARRYCSN-OH; disulfide 3-8)
IC50 [1]: 0.2 ± 0.06 µM
IC50 [2]: 0.19 ± 0.01 µM

Molecule: CC(C)[C@H](N)C(=O)NCC(=O)N[C@H]1CSSC[C@@H](C(=O)O)NC(=O)[C@H](Cc2ccc(O)cc2)NC(=O)[C@H](CCCNC(=N)N)NC(=O)[C@H](CCCNC(=N)N)NC(=O)[C@H](C)NC1=O [VGCARRYC] (H-VGCARRYC-OH; disulfide 3-8)
IC50 [2]: 0.23 ± 0.01 µM

Molecule: CC(C)[C@H](N)C(=O)NCC(=O)N[C@H]1CSSC[C@@H](C(=O)N[C@@H](CO)C(=O)N[C@@H](CC(N)=O)C(=O)O)NC(=O)[C@H](Cc2ccc(O)cc2)NC(=O)[C@H](CCCNC(=N)N)NC(=O)[C@H](C)NC(=O)CNC1=O [VGCGARYCSN] (H-VGCGARYCSN-OH; disulfide 3-8)
IC50 [1]: 12.1 ± 8.4 µM

Molecule: CC(C)[C@H](N)C(=O)NCC(=O)N[C@H]1CSSC[C@@H](C(=O)N[C@@H](CO)C(=O)N[C@@H](CC(N)=O)C(=O)O)NC(=O)[C@H](Cc2ccc(O)cc2)NC(=O)[C@H](C)NC(=O)[C@H](CCCNC(=N)N)NC(=O)CNC1=O [VGCGRAYCSN] (H-VGCGRAYCSN-OH; disulfide 3-8)
IC50 [1]: 17.6 ± 4.6 µM

Molecule: CC(C)[C@H](N)C(=O)NCC(=O)N[C@H]1CSSC[C@@H](C(=O)N[C@@H](CO)C(=O)N[C@@H](CC(N)=O)C(=O)O)NC(=O)[C@H](C)NC(=O)[C@H](CCCNC(=N)N)NC(=O)[C@H](CCCNC(=N)N)NC(=O)CNC1=O [VGCGRRACSN] (H-VGCGRRACSN-OH; disulfide 3-8)
IC50 [1]: 8.9 ± 5.5 µM

Molecule: CC(=O)N[C@H](C(=O)NCC(=O)N[C@H]1CSSC[C@@H](C(=O)N[C@@H](CO)C(=O)N[C@@H](CC(N)=O)C(=O)O)NC(=O)[C@H](Cc2ccc(O)cc2)NC(=O)[C@H](CCCNC(=N)N)NC(=O)[C@H](CCCNC(=N)N)NC(=O)[C@H](C)NC1=O)C(C)C [ac-VGCARRYCSN] (Ac-VGCARRYCSN-OH; disulfide 3-8; C-terminus assumed)
IC50 [2]: > 1000 µM

B1: … with deletion of Val-1 and Gly-2 (peptide)
peptide: CARRYCSN
inhibition of rCD13 enzymatic activity, against … (fold loss of activity) [3]: 270

B2: … with deletion of Ser-9 and Asn-10 (peptide)
peptide: VGCARRYC
inhibition of rCD13 enzymatic activity, against … (fold decrease) [3]: 3

B4: … with deletion of Val-1 (peptide)
peptide: GCARRYCSN
inhibition of rCD13 enzymatic activity, against … (fold loss of activity) [3]: 200

Other lines, results leading:

IC50 [2]: 40.1 ± 1.9 µM
Molecule: C[C@@H]1NC(=O)[C@@H](NC(=O)CN)CSSC[C@@H](C(=O)N[C@@H](CO)C(=O)N[C@@H](CC(N)=O)C(=O)O)NC(=O)[C@H](Cc2ccc(O)cc2)NC(=O)[C@H](CCCNC(=N)N)NC(=O)[C@H](CCCNC(=N)N)NC1=O [GCARRYCSN] (H-GCARRYCSN-OH; disulfide 2-7)

IC50 [1]: 2.01 ± 1.1 µM
Molecule: CC(C)[C@H](N)C(=O)NCC(=O)N[C@H]1CSSC[C@@H](C(=O)N[C@@H](CO)C(=O)N[C@@H](CC(N)=O)C(=O)O)NC(=O)[C@H](Cc2ccc(O)cc2)NC(=O)[C@H](CCCNC(=N)N)NC(=O)[C@H](CCCNC(=N)N)NC(=O)CNC1=O [VGCGRRYCSN] (H-VGCGRRYCSN-OH; disulfide 3-8)

Inhibition of rCD13 enzymatic activity (in words) ([1]; negative control peptide, rCD13 0.2 µg/ml, L-alanine-p-nitroanilide, Supplementary Fig. S2A): no inhibition
Molecule: CSGIGSGGC [negative control peptide, reference compound]

IC50 [1]: 6.2 ± 4.8 µM
Molecule: VGAGRRYASN [VGAGRRYASN]

IC50 of inhibition of rCD13 enzymatic activity [3]: 51 µM
B3: small disulfide-bridged peptide CARRYC (peptide)
peptide: CARRYC
modifications: disulfide 1-6 (inferred)

From publication PMC10827914 (Cellular and Molecular Life Sciences: CMLS, 2024)
